Here are results for 31 molecules from BindingDB's records for doi:10.1016/j.bmcl.2009.06.075 (Pfizer, 2009).

This test can be described thus: Antagonist activity at human P2Y12 receptor assessed as inhibition of ADP-induced platelet-rich plasma aggregation by turbidimetric method.
For the molecule `CCOC(=O)N1CCN(C(=O)[C@H](CCC(=O)O)NC(=O)c2cc(NCCN(C)C)cc(-c3ccccc3)n2)CC1` [(S)-4-(4-(2-(dimethylamino)ethylamino)-6-phenylpicolinamido)-5-(4-(ethoxycarbonyl)piperazin-1-yl)-5-oxopentanoic acid], the IC50 is 36 µM. To `CCCCCOC(=O)N1CCN(C(=O)[C@H](CCC(=O)O)NC(=O)c2cc(N3CCC(CN)CC3)cc(-c3ccccc3)n2)CC1` [(4S)4-[({4-[4-(Aminomethyl)piperidin-1-yl]-6-phenylpyridin-2-yl}carbonyl)amino]-5-oxo-5-{4-[(pentyloxy)carbonyl]piperazin-1-yl}pentanoic Acid] belongs 0.77 µM; to `CCOC(=O)N1CCN(C(=O)[C@H](CCC(=O)O)NC(=O)c2cc(N3CCN(CCN(C)C)CC3)cc(-c3ccccc3)n2)CC1` [(S)-4-(4-(4-(2-(dimethylamino)ethyl)piperazin-1-yl)-6-phenylpicolinamido)-5-(4-(ethoxycarbonyl)piperazin-1-yl)-5-oxopentanoic acid], 2.3 µM. To `CCOC(=O)N1CCN(C(=O)[C@H](CCC(=O)O)NC(=O)c2cc(NCCOC)cc(-c3ccccc3)n2)CC1` [(S)-5-(4-(ethoxycarbonyl)piperazin-1-yl)-4-(4-(2-methoxyethylamino)-6-phenylpicolinamido)-5-oxopentanoic acid] belongs 14 µM. To `CCCCCOC(=O)N1CCN(C(=O)[C@H](CCC(=O)O)NC(=O)c2cc(OCCO)cc(-c3ccccc3)n2)CC1` [(4S)4-({[4-(2-Hydroxyethoxy)6-phenylpyridin-2-yl]carbonyl}-amino)5-oxo-5-{4-[(pentyloxy)carbonyl]piperazin-1-yl}pentanoicAcid] belongs 11.5 µM; to `CCCCCCOC(=O)N1CCN(C(=O)[C@H](CCC(=O)O)NC(=O)c2cccc(-c3ccccc3)n2)CC1` [(S)-5-(4-(hexyloxycarbonyl)piperazin-1-yl)-5-oxo-4-(6-phenylpicolinamido)pentanoic acid], 19 µM; to `CCOC(=O)N1CCN(C(=O)[C@H](CCC(=O)O)NC(=O)c2cc(NC3CCOCC3)cc(-c3ccccc3)n2)CC1` [(S)-5-(4-(ethoxycarbonyl)piperazin-1-yl)-5-oxo-4-(6-phenyl-4-(tetrahydro-2H-pyran-4-ylamino)picolinamido)pentanoic acid], 21 µM. For the molecule `CCCCOC(=O)N1CCN(C(=O)[C@H](CCC(=O)O)NC(=O)c2cc(OCCO)cc(-c3ccccc3)n2)CC1` [(S)-5-(4-(butoxycarbonyl)piperazin-1-yl)-4-(4-(2-hydroxyethoxy)-6-phenylpicolinamido)-5-oxopentanoic acid], the IC50 came out at 7.8 µM.

On to `CCCCCCCOC(=O)N1CCN(C(=O)[C@H](CCC(=O)O)NC(=O)c2cccc(-c3ccccc3)n2)CC1` [(S)-5-(4-(heptyloxycarbonyl)piperazin-1-yl)-5-oxo-4-(6-phenylpicolinamido)pentanoic acid], for which the 50% inhibitory concentration (IC50) came out at 56 µM.

For `C=CCOC(=O)N1CCN(C(=O)[C@H](CCC(=O)O)NC(=O)c2cc(OC3CCNCC3)cc(-c3ccccc3)n2)CC1` [(S)-5-(4-(allyloxycarbonyl)piperazin-1-yl)-5-oxo-4-(6-phenyl-4-(piperidin-4-yloxy)picolinamido)pentanoic acid], the IC50 amounted to 9.4 µM. To `CCCCCCCCOC(=O)N1CCN(C(=O)[C@H](CCC(=O)O)NC(=O)c2cccc(-c3ccccc3)n2)CC1` [(4S)5-{4-[(Octyloxy)carbonyl]piperazin-1-yl}-5-oxo-4-{[(6-phenylpyridin-2-yl)carbonyl]amino}pentanoic Acid] belongs greater than 100 µM; to `CCCCOc1cc(C(=O)N[C@@H](CCC(=O)O)C(=O)N2CCN(C(=O)OCC)CC2)nc(-c2ccccc2)c1` [(4S)4-{[(4-Butoxy-6-phenylpyridin-2-yl)carbonyl]amino}-5-[4-(ethoxycarbonyl)iperazin-1-yl]-5-oxopentanoic Acid], 33.9 µM; to `CCOC(=O)N1CCN(C(=O)[C@H](CCC(=O)O)NC(=O)c2cc(N(CC)CC)cc(-c3ccccc3)n2)CC1` [(S)-4-(4-(diethylamino)-6-phenylpicolinamido)-5-(4-(ethoxycarbonyl)piperazin-1-yl)-5-oxopentanoic acid], greater than 100 µM. To `CCOC(=O)N1CCN(C(=O)[C@H](CCC(=O)O)NC(=O)c2cc(N3CCC(CN)CC3)cc(-c3ccccc3)n2)CC1` [(S)-4-(4-(4-(aminomethyl)piperidin-1-yl)-6-phenylpicolinamido)-5-(4-(ethoxycarbonyl)piperazin-1-yl)-5-oxopentanoic acid] belongs 3.3 µM. To `CCCCCCOC(=O)N1CCN(C(=O)[C@H](CCC(=O)O)NC(=O)c2cc(N3CCC(COC)CC3)cc(-c3ccccc3)n2)CC1` [(S)-5-(4-(hexyloxycarbonyl)piperazin-1-yl)-4-(4-(4-(methoxymethyl)piperidin-1-yl)-6-phenylpicolinamido)-5-oxopentanoic acid] belongs 7.6 µM. With `CCCCCCOC(=O)N1CCN(C(=O)[C@H](CCC(=O)O)NC(=O)c2cc(N(C)CCS(C)(=O)=O)cc(-c3ccccc3)n2)CC1` [(S)-4-(4-(methyl(2-(methylsulfonyl)ethyl)amino)-6-phenylpicolinamido)-5-oxo-5-(4-(hexyloxycarbonyl)piperazin-1-yl)pentanoic acid], the IC50 stood at 17.7 µM. To `CCCCCOC(=O)N1CCN(C(=O)[C@H](CCC(=O)O)NC(=O)c2cc(N(C)CCS(C)(=O)=O)cc(-c3ccccc3)n2)CC1` [(S)-4-(4-(methyl(2-(methylsulfonyl)ethyl)amino)-6-phenylpicolinamido)-5-oxo-5-(4-(pentyloxycarbonyl)piperazin-1-yl)pentanoic acid] belongs 4.1 µM; to `CCOC(=O)N1CCN(C(=O)[C@H](CCC(=O)O)NC(=O)c2cc(OCCCO)cc(-c3ccccc3)n2)CC1` [(4S)5-[4-(Ethoxycarbonyl)iperazin-1-yl]-4-({[4-(3-hydroxypropoxy)6-phenylpyridin-2-yl]carbonyl}amino)5-oxopentanoic Acid], 9 µM; to `Cc1cccc(N2CCN(C(=O)[C@H](CCC(=O)O)NC(=O)c3cccc(-c4ccccc4)n3)CC2)c1` [(4S)5-[4-(3-Methylphenyl)piperazin-1-yl]-5-oxo-4-{[(6-phenylpyridin-2-yl)carbonyl]amino}pentanoicAcid], greater than 100 µM. To `CCOC(=O)N1CCN(C(=O)[C@H](CCC(=O)O)NC(=O)c2cc(N3CCC(N4CCCC4)CC3)cc(-c3ccccc3)n2)CC1` [(4S)5-[4-(Ethoxycarbonyl)piperazin-1-yl]-5-oxo-4-({[6-phenyl-4-(4-pyrrolidin-1-ylpiperidin-1-yl)pyridin-2-yl]carbonyl}amino)pentanoic Acid] belongs 2 µM.

As for `CCCOC(=O)N1CCN(C(=O)[C@H](CCC(=O)O)NC(=O)c2cccc(-c3ccccc3)n2)CC1` [(4S)5-Oxo-4-{[(6-phenylpyridin-2-yl)carbonyl]amino}-5-[4-(propoxycarbonyl)iperazin-1-yl]pentanoic Acid], the IC50 was 62 µM. With `CCCCOC(=O)N1CCN(C(=O)[C@H](CCC(=O)O)NC(=O)c2cccc(-c3ccccc3)n2)CC1` [(S)-5-(4-(butoxycarbonyl)piperazin-1-yl)-5-oxo-4-(6-phenylpicolinamido)pentanoic acid], the IC50 stood at 28 µM. In the case of `CCOC(=O)N1CCN(C(=O)[C@H](CCC(=O)O)NC(=O)c2cc(N3CCC(COC)CC3)cc(-c3ccccc3)n2)CC1` [(4S)5-[4-(Ethoxycarbonyl)piperazin-1-yl]-4-[({4-[4-(methoxymethyl)piperidin-1-yl]-6-phenylpyridin-2-yl}carbonyl)amino]-5-oxopentanoic Acid], the IC50 is 9.9 µM. For the molecule `CCOC(=O)N1CCN(C(=O)[C@H](CCC(=O)O)NC(=O)c2cc(OCCOC)cc(-c3ccccc3)n2)CC1` [(S)-5-(4-(ethoxycarbonyl)piperazin-1-yl)-4-(4-(2-methoxyethoxy)-6-phenylpicolinamido)-5-oxopentanoic acid], the concentration for half-maximal inhibition (IC50) was 5.8 µM. Regarding `CCCCCCOC(=O)N1CCN(C(=O)[C@H](CCC(=O)O)NC(=O)c2cc(N3CCC(O)CC3)cc(-c3ccccc3)n2)CC1` [(S)-5-(4-(hexyloxycarbonyl)piperazin-1-yl)-4-(4-(4-hydroxypiperidin-1-yl)-6-phenylpicolinamido)-5-oxopentanoic acid], the IC50 is 6.4 µM.

As for `CCOC(=O)N1CCN(C(=O)[C@H](CCC(=O)O)NC(=O)c2cc(OCc3ccccc3)cc(-c3ccccc3)n2)CC1` [(S)-4-(4-(benzyloxy)-6-phenylpicolinamido)-5-(4-(ethoxycarbonyl)piperazin-1-yl)-5-oxopentanoic acid], the IC50 came out at 31 µM.

With `CCCCOC(=O)N1CCN(C(=O)[C@H](CCC(=O)O)NC(=O)c2cc(OC3CCNCC3)cc(-c3ccccc3)n2)CC1` [(S)-5-(4-(butoxycarbonyl)piperazin-1-yl)-5-oxo-4-(6-phenyl-4-(piperidin-4-yloxy)picolinamido)pentanoic acid], the IC50 amounted to 1.1 µM. To `Cc1cccc(N2CCN(C(=O)[C@H](CCC(=O)O)NC(=O)c3cc(-c4ccccc4)cc(-c4ccccc4)n3)CC2)c1` [(S)-4-(4,6-diphenylpicolinamido)-5-oxo-5-(4-m-tolylpiperazin-1-yl)pentanoic acid] belongs greater than 100 µM. To `CCOC(=O)N1CCN(C(=O)[C@H](CCC(=O)O)NC(=O)c2cc(OCCO)cc(-c3ccccc3)n2)CC1` [(4S)5-[4-(Ethoxycarbonyl)iperazin-1-yl]-4-({[4-(2-hydroxyethoxy)6-phenylpyridin-2-yl]carbonyl}amino)5-oxopentanoicAcid] belongs 7.6 µM; to `COCCOc1cc(C(=O)N[C@@H](CCC(=O)O)C(=O)N2CCN(C(=O)OC(C)C)CC2)nc(-c2ccccc2)c1` [(S)-5-(4-(isopropoxycarbonyl)piperazin-1-yl)-4-(4-(2-methoxyethoxy)-6-phenylpicolinamido)-5-oxopentanoic acid], 20.1 µM; to `CCCCOC(=O)N1CCN(C(=O)[C@H](CCC(=O)O)NC(=O)c2cc(OCCCC)cc(-c3ccccc3)n2)CC1` [(4S)5-[4-(Butoxycarbonyl)iperazin-1-yl]-4-{[(4-butoxy-6-phenylpyridin-2-yl)carbonyl]amino}-5-oxopentanoic Acid], 26.9 µM.

One may read the IC50 as the point on the concentration scale where inhibition reaches its midpoint.
